From ChEMBL document CHEMBL1201862, “PubChem BioAssay data set” (2004)
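Briefly, cells in 96-well plates were exposed to five compound concentrations for 48 h, and endpoints were estimated by linear interpolation. Abbreviation: GI50, concentration required for 50% inhibition of growth.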 Active and inactive are the calls of the source. No stated cut-off is given here; in the data, active = GI50 up to about 1.1 µM and inactive = higher. Peptide text beside a SMILES is read from it. * marks the point of attachment. Cbz = O=C(OCc1ccccc1)*

Columns and labels:
Assay in all cases: growth of human tumour cells (NCI), 48 h
T47D = system: T47D
MDA-MB-435 = system: MDA-MB-435
SF-539 = system: SF-539
M14 = system: M14
HOP-92 = system: HOP-92
SW-620 = system: SW-620
786-0 = system: 786-0
HCT-116 = system: HCT-116
SN12C = system: SN12C
COLO 205 = system: COLO 205
IGROV-1 = system: IGROV-1
LOX IMVI = system: LOX IMVI
SNB-19 = system: SNB-19
RXF 393 = system: RXF 393
NCI-H522 = system: NCI-H522
SK-MEL-2 = system: SK-MEL-2
TK-10 = system: TK-10
A498 = system: A498
UACC-257 = system: UACC-257
CCRF-CEM = system: CCRF-CEM

SMILES	GI50 (T47D)	GI50 (MDA-MB-435)	GI50 (SF-539)	GI50 (M14)	GI50 (HOP-92)	GI50 (SW-620)	GI50 (786-0)	GI50 (HCT-116)	GI50 (SN12C)	GI50 (COLO 205)	GI50 (IGROV-1)	GI50 (LOX IMVI)	GI50 (SNB-19)	GI50 (RXF 393)	GI50 (NCI-H522)	GI50 (SK-MEL-2)	GI50 (TK-10)	GI50 (A498)	GI50 (UACC-257)	GI50 (CCRF-CEM)
O=C1C2SC34c5c2c2ccccc2n5CCC3CCCN14 (centres undefined)	91.2 µM (inactive)	89.1 µM (inactive)	> 100 µM (inactive)	> 100 µM (inactive)	34.9 µM (inactive)	> 100 µM (inactive)	27.5 µM (inactive)	> 100 µM (inactive)	> 100 µM (inactive)	> 100 µM (inactive)	80.7 µM (inactive)	> 100 µM (inactive)	62.4 µM (inactive)	98.4 µM (inactive)	56.8 µM (inactive)	74.6 µM (inactive)	25.9 µM (inactive)	> 100 µM (inactive)	15 µM (inactive)	–
Nc1cccc2cc(Cl)cnc12	15.2 µM (inactive)	> 100 µM (inactive)	> 100 µM (inactive)	> 100 µM (inactive)	> 100 µM (inactive)	> 100 µM (inactive)	> 100 µM (inactive)	> 100 µM (inactive)	> 100 µM (inactive)	> 100 µM (inactive)	> 100 µM (inactive)	> 100 µM (inactive)	> 100 µM (inactive)	> 100 µM (inactive)	> 100 µM (inactive)	–	> 100 µM (inactive)	> 100 µM (inactive)	> 100 µM (inactive)	16.1 µM (inactive)
NS(=O)(=O)c1ccc(NC(=O)Nc2ccccc2F)cc1	52.5 µM (inactive)	> 100 µM (inactive)	> 100 µM (inactive)	82.4 µM (inactive)	> 100 µM (inactive)	> 100 µM (inactive)	> 100 µM (inactive)	> 100 µM (inactive)	> 100 µM (inactive)	> 100 µM (inactive)	> 100 µM (inactive)	> 100 µM (inactive)	> 100 µM (inactive)	> 100 µM (inactive)	> 100 µM (inactive)	> 100 µM (inactive)	> 100 µM (inactive)	> 100 µM (inactive)	> 100 µM (inactive)	–
CC(=O)Oc1ccc2[nH]c3c(C)c4cccc-4ccc3c2c1	2.43 µM (inactive)	2 µM (inactive)	–	2.17 µM (inactive)	2.12 µM (inactive)	3.7 µM (inactive)	1.85 µM (inactive)	2.07 µM (inactive)	2.47 µM (inactive)	–	1.57 µM (inactive)	2.18 µM (inactive)	2.04 µM (inactive)	1.82 µM (inactive)	1.63 µM (inactive)	1.96 µM (inactive)	1.87 µM (inactive)	2.1 µM (inactive)	1.92 µM (inactive)	–
C[C@@H](c1ccccc1)N1C[C@@H](c2ccc3c(c2)OCO3)[C@@H]2C(=O)CCC[C@@H]21	37.3 µM (inactive)	67.8 µM (inactive)	–	19.5 µM (inactive)	47.1 µM (inactive)	–	75.2 µM (inactive)	43.8 µM (inactive)	59.8 µM (inactive)	20.6 µM (inactive)	41.1 µM (inactive)	69 µM (inactive)	75 µM (inactive)	88.5 µM (inactive)	42.5 µM (inactive)	41 µM (inactive)	> 100 µM (inactive)	28.6 µM (inactive)	50.2 µM (inactive)	61 µM (inactive)
Cc1cc(Cl)ccc1C(=O)c1ccc2ccccc2c1C(=O)O	> 100 µM (inactive)	> 100 µM (inactive)	> 100 µM (inactive)	> 100 µM (inactive)	> 100 µM (inactive)	> 100 µM (inactive)	> 100 µM (inactive)	> 100 µM (inactive)	–	> 100 µM (inactive)	> 100 µM (inactive)	–	> 100 µM (inactive)	39.6 µM (inactive)	> 100 µM (inactive)	> 100 µM (inactive)	> 100 µM (inactive)	> 100 µM (inactive)	> 100 µM (inactive)	> 100 µM (inactive)
Nc1nc(Cl)c(Cl)c(NCC2(O)CCC2)n1	2.76 µM (inactive)	88.3 µM (inactive)	> 100 µM (inactive)	–	29.1 µM (inactive)	> 100 µM (inactive)	> 100 µM (inactive)	57.3 µM (inactive)	> 100 µM (inactive)	–	45.6 µM (inactive)	28.5 µM (inactive)	> 100 µM (inactive)	38.4 µM (inactive)	18.3 µM (inactive)	> 100 µM (inactive)	> 100 µM (inactive)	11.4 µM (inactive)	> 100 µM (inactive)	> 100 µM (inactive)
COc1ccc(CNc2nc(NCc3ccc(OC)cc3)nc(NC(C)C)n2)cc1	43.6 µM (inactive)	3.1 µM (inactive)	9.08 µM (inactive)	3.61 µM (inactive)	3.37 µM (inactive)	4.22 µM (inactive)	7.91 µM (inactive)	3.18 µM (inactive)	–	9.57 µM (inactive)	7.53 µM (inactive)	6.89 µM (inactive)	84.1 µM (inactive)	7.08 µM (inactive)	3.03 µM (inactive)	6.5 µM (inactive)	17.9 µM (inactive)	4.79 µM (inactive)	7.85 µM (inactive)	–
COc1ccc2nc(-c3ccccc3)c(=O)[nH]c2c1	> 100 µM (inactive)	> 100 µM (inactive)	> 100 µM (inactive)	> 100 µM (inactive)	> 100 µM (inactive)	> 100 µM (inactive)	> 100 µM (inactive)	> 100 µM (inactive)	> 100 µM (inactive)	> 100 µM (inactive)	> 100 µM (inactive)	> 100 µM (inactive)	> 100 µM (inactive)	> 100 µM (inactive)	> 100 µM (inactive)	–	> 100 µM (inactive)	> 100 µM (inactive)	> 100 µM (inactive)	> 100 µM (inactive)
C=C(c1ccc2[nH]c(NC(=O)OC)nc2c1)c1cccs1	0.354 µM (active)	0.0259 µM (active)	0.0693 µM (active)	0.247 µM (active)	0.975 µM (active)	–	0.155 µM (active)	0.0675 µM (active)	0.839 µM (active)	0.129 µM (active)	0.371 µM (active)	0.0986 µM (active)	0.198 µM (active)	> 100 µM (inactive)	0.0813 µM (active)	2.26 µM (inactive)	0.22 µM (active)	0.425 µM (active)	0.556 µM (active)	–
Nc1nc(-c2ccccc2)c(CC(=O)O)s1	> 100 µM (inactive)	> 100 µM (inactive)	> 100 µM (inactive)	> 100 µM (inactive)	> 100 µM (inactive)	> 100 µM (inactive)	> 100 µM (inactive)	> 100 µM (inactive)	> 100 µM (inactive)	> 100 µM (inactive)	> 100 µM (inactive)	> 100 µM (inactive)	> 100 µM (inactive)	> 100 µM (inactive)	> 100 µM (inactive)	> 100 µM (inactive)	> 100 µM (inactive)	> 100 µM (inactive)	> 100 µM (inactive)	–
O=C(Nc1ccc(Br)cc1)c1c(-c2ccccc2)c2ccc(O)cc2oc1=O	> 10 µM (inactive)	> 10 µM (inactive)	> 10 µM (inactive)	> 10 µM (inactive)	> 10 µM (inactive)	> 10 µM (inactive)	> 10 µM (inactive)	–	> 10 µM (inactive)	> 10 µM (inactive)	> 10 µM (inactive)	> 10 µM (inactive)	–	> 10 µM (inactive)	> 10 µM (inactive)	> 10 µM (inactive)	> 10 µM (inactive)	> 10 µM (inactive)	> 10 µM (inactive)	> 10 µM (inactive)
O=c1oc2cccnc2n1CCN1CCN(c2ccc(Oc3ccccc3)cc2)CC1	10.4 µM (inactive)	63.2 µM (inactive)	> 100 µM (inactive)	89.7 µM (inactive)	57.3 µM (inactive)	> 100 µM (inactive)	20 µM (inactive)	33.6 µM (inactive)	–	–	> 100 µM (inactive)	> 100 µM (inactive)	> 100 µM (inactive)	> 100 µM (inactive)	31.6 µM (inactive)	> 100 µM (inactive)	61.8 µM (inactive)	40.9 µM (inactive)	21.9 µM (inactive)	7.21 µM (inactive)
Cc1c(-c2ccc(O)c(O)c2)oc(=O)c2c(O)cccc12	1.55 µM (inactive)	3.17 µM (inactive)	12.5 µM (inactive)	8.05 µM (inactive)	16.3 µM (inactive)	12.2 µM (inactive)	9.73 µM (inactive)	6.56 µM (inactive)	5.27 µM (inactive)	9.71 µM (inactive)	5.82 µM (inactive)	–	6.3 µM (inactive)	12.4 µM (inactive)	2.95 µM (inactive)	13.1 µM (inactive)	12.2 µM (inactive)	15 µM (inactive)	15.7 µM (inactive)	3.08 µM (inactive)
CCOC(=O)C(C)NC(=O)C(C)NC(=O)C(C)NC(=O)C(C)NC(=O)C(C)NC(=O)C(C)NC(=O)C(C)NC(=O)OCc1ccccc1 (centres undefined) (Cbz-AAAAAAA-OEt; configuration not given here)	> 100 µM (inactive)	> 100 µM (inactive)	> 100 µM (inactive)	> 100 µM (inactive)	> 100 µM (inactive)	> 100 µM (inactive)	> 100 µM (inactive)	> 100 µM (inactive)	> 100 µM (inactive)	> 100 µM (inactive)	> 100 µM (inactive)	> 100 µM (inactive)	> 100 µM (inactive)	> 100 µM (inactive)	> 100 µM (inactive)	–	> 100 µM (inactive)	40.8 µM (inactive)	–	–
